What was measured:
Format in all cases: cell-based
[1] = test system: PD1-ss+10aa/Gaussia Luciferase; test: Dox-Induced PD1-ss-Gluc Assay; conditions: 24 hr doxycycline induction, 293FRT/TO cells, Gaussia luciferase signal; read-out: 24 hr Dox Inducible PD1ssGluc 293FRT/TO: Mean IC50
Outline: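 Compounds, diluted in DMSO/media with doxycycline, were added to cells plated a day earlier and kept at 37° C under 5% CO2. The cells stably express a Gaussia luciferase construct fused to PD1-ss+10aa, induced via the T-REx system. Unassigned stereochemistry means mixture data.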

[2] = test system: TNFα-FL/Gaussia Luciferase; test: Dox Induced TNFα-FL-Gluc Assay; conditions: 24 hr doxycycline induction, 293FRT/TO cells, Gaussia luciferase signal; read-out: 24 hr Dox Inducible TNFaFLGluc 293FRT/TO: Mean IC50
Outline: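 Compounds were added in doxycycline-containing DMSO/media to cells plated the previous day and incubated at 37° C under 5% CO2. These cells stably express a TNFα-FL/Gaussia luciferase cDNA whose expression is under T-REx (Dox-inducible) control, selected with Hygromycin and Blasticidin.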

[3] = test system: HER3-ss+4aa/Gaussia Luciferase; test: Dox-Induced Her3-ss-Gluc Assay; conditions: 24 hr doxycycline induction, 293FRT/TO cells, Gaussia luciferase signal; read-out: 24 hr Dox Inducible Her3(ss + 4)Gluc 293FRT/TO: Mean IC50
Outline: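 Compounds, diluted in DMSO/media containing doxycycline, were incubated at 37° C., 5% CO2 with cells seeded one day earlier. The cells stably express HER3-ss+4aa/Gaussia luciferase under T-REx control. Where no stereochemistry is shown, data refer to the mixture of stereoisomers.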

[4] = test system: IL-2-FL/Gaussia Luciferase; test: Dox Induced IL2-FL-Gluc Assay; conditions: 24 hr doxycycline induction, 293FRT/TO cells, Gaussia luciferase signal; read-out: 24 hr Dox Inducible IL2FLGIuc 293FRT/TO: Mean IC50
Outline: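 Compounds were added together with doxycycline in DMSO/media and incubated at 37° C., 5% CO2. The cells were a stably selected line carrying IL-2-FL/Gaussia luciferase under T-REx inducible control. Structures drawn without stereochemistry were tested as stereoisomer mixtures.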

[5] = test system: human multiple myeloma cell line NCI-H929; test: H929 Cell Viability Assay; conditions: 48 hr, NCI-H929 cells, Celltiter-Glo, read-out: 48 hr H929 Viability Celltiter-Glo: Mean EC50
Experimental: Plates were incubated at 37° C., 5% CO2 for 48 hours. After 48 hours, Celltiter-Glo® (Promega) was added to each well and luciferase signal was quantified using Tecan Infinite M1000 Pro for cell viability determination.
For chemical structures that include one or more stereoisomers, but are illustrated without indicating stereochemistry, the assay data refers to a mixture of stereoisomers.

[6] = test system: human multiple myeloma cell line U266B1; test: U266 Cell Viability Assay; conditions: U-266, 48 hr, U266B1 cells, Celltiter-Glo, read-out: 48 hr U266 Viability Celltiter-Glo: Mean EC50
Outline: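 Viability measured by CellTiter-Glo luciferase signal after 48 h compound exposure (37 °C, 5% CO2) of U266B1 cells in 384-well format. Where stereochemistry is not shown, data refer to the stereoisomer mixture.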

## O=C(Nc1ncc(CCO)s1)c1cccn1Cc1ccncc1 [Compound A119]
[1]
  IC50: > 25 µM
[2]
  IC50: > 25 µM
[3]
  IC50: > 25 µM
[4]
  IC50: > 25 µM
[5]
  EC50: > 25 µM
[6]
  EC50: > 25 µM

## O=C(Nc1nc(CCO)cs1)c1cccn1Cc1ccncc1 [Compound A120]
[1]
  IC50: > 25 µM
[2]
  IC50: > 25 µM
[3]
  IC50: > 25 µM
[4]
  IC50: > 25 µM
[5]
  EC50: > 25 µM
[6]
  EC50: > 25 µM

## O=C(Nc1nc2cccnc2s1)c1cccn1Cc1ccncc1 [Compound A121]
[1]
  IC50: > 25 µM
[2]
  IC50: > 25 µM
[3]
  IC50: > 25 µM
[4]
  IC50: > 25 µM
[5]
  EC50: > 25 µM
[6]
  EC50: > 25 µM

## CC(C)OC(C)(C)c1csc(NC(=O)c2ccn(Cc3ccncc3)c2)n1 [Compound A122, N-(4-(2-isopropoxypropan-2-yl)thiazol-2-yl)-1-(pyridin-4-ylmethyl)-1H-pyrrole-3-carboxamide]
[1]
  IC50: > 25 µM
[2]
  IC50: > 25 µM
[3]
  IC50: > 25 µM
[4]
  IC50: > 25 µM
[5]
  EC50: > 25 µM
[6]
  EC50: > 25 µM

## CC(C)OC1(c2csc(NC(=O)c3cccn3Cc3ccncc3)n2)CC1 [Compound A123]
[1]
  IC50: > 25 µM
[2]
  IC50: > 25 µM
[3]
  IC50: > 25 µM
[4]
  IC50: > 25 µM
[5]
  EC50: > 25 µM
[6]
  EC50: > 25 µM

## CC(C)OC(C)(C)c1csc(NC(=O)c2cccn2Cc2ccc(=O)n(C)c2)n1 [Compound A124, N-(4-(2-isopropoxypropan-2-yl)thiazol-2-yl)-1-((1-methyl-6-oxo-1,6-dihydropyridin-3-yl)methyl)-1H-pyrrole-2-carboxamide]
[1]
  IC50: > 25 µM
[2]
  IC50: > 25 µM
[3]
  IC50: > 25 µM
[4]
  IC50: > 25 µM
[5]
  EC50: > 25 µM
[6]
  EC50: > 25 µM

## COc1cc(Cn2cccc2C(=O)Nc2nc(C(C)(C)OC(C)C)cs2)ccn1 [Compound A125, N-(4-(2-isopropoxypropan-2-yl)thiazol-2-yl)-1-((2-methoxypyridin-4-yl)methyl)-1H-pyrrole-2-carboxamide]
[1]
  IC50: > 25 µM
[2]
  IC50: > 25 µM
[3]
  IC50: > 25 µM
[4]
  IC50: > 25 µM
[5]
  EC50: > 25 µM
[6]
  EC50: > 25 µM

## CC(C)OC(C)(C)c1csc(NC(=O)c2cccn2Cc2ccn(C)c(=O)c2)n1 [Compound A127, N-(4-(2-isopropoxypropan-2-yl)thiazol-2-yl)-1-((1-methyl-2-oxo-1,2-dihydropyridin-4-yl)methyl)-1H-pyrrole-2-carboxamide]
[1]
  IC50: > 25 µM
[2]
  IC50: > 25 µM
[3]
  IC50: > 25 µM
[4]
  IC50: > 25 µM
[5]
  EC50: > 25 µM
[6]
  EC50: > 25 µM

## CC(=O)N1CCC(Cn2cccc2C(=O)Nc2nc(C(C)(C)OC(C)C)cs2)CC1 [Compound A128, 1-((1-acetylpiperidin-4-yl)methyl)-N-(4-(2-isopropoxypropan-2-yl)thiazol-2-yl)-1H-pyrrole-2-carboxamide]
[1]
  IC50: > 25 µM
[2]
  IC50: > 25 µM
[3]
  IC50: > 25 µM
[4]
  IC50: > 25 µM
[5]
  EC50: > 25 µM
[6]
  EC50: > 25 µM

## CC(C)OC(C)(C)c1csc(NC(=O)c2cccn2CC2CCN(C)CC2)n1 [Compound A129, N-(4-(2-isopropoxypropan-2-yl)thiazol-2-yl)-1-((1-methylpiperidin-4-yl)methyl)-1H-pyrrole-2-carboxamide]
[1]
  IC50: > 25 µM
[2]
  IC50: > 25 µM
[3]
  IC50: > 25 µM
[4]
  IC50: > 25 µM
[5]
  EC50: > 25 µM
[6]
  EC50: > 25 µM

## CCc1nc(NC(=O)c2cccn2Cc2cccnc2)sc1C [Compound A131, N-(4-ethyl-5-methylthiazol-2-yl)-1-(pyridin-3-ylmethyl)-1H-pyrrole-2-carboxamide]
[1]
  IC50: > 25 µM
[2]
  IC50: > 25 µM
[3]
  IC50: > 25 µM
[4]
  IC50: > 25 µM
[5]
  EC50: > 25 µM
[6]
  EC50: > 25 µM

## O=C(Nc1nc(C#Cc2ccccc2)cs1)c1cccn1Cc1ccncc1 [Compound A132]
[1]
  IC50: 0.15 µM
[2]
  IC50: 1.21 µM
[3]
  IC50: 0.417 µM
[4]
  IC50: 0.744 µM
[5]
  EC50: 8.85 µM
[6]
  EC50: 9.34 µM
